Laboratory results reported in the NIST ThermoML archive (doi:10.1016/j.jct.2017.01.004).
Numbers after ± are expanded uncertainties.

Legend:
[1] = Crystal; DTA
[2] = Molar enthalpy of transition or fusion; settings: Crystal; DSC

## O=C(O)CO [2-hydroxyethanoic acid]
[1]
  Normal melting temperature: 77.60 ± 1.1 °C
[2]
  Molar enthalpy of transition or fusion: 4.76 ± 0.263 kcal/mol
